Consider 51 molecules from patent US9422262B2, “Compounds and methods for treating diseases mediated by protease activated receptors” (The Broad Institute, Inc., priority 2010, dated 2016).

One series relates to thrombus formation. As to the kind of experiment: Thrombus formation following laser-induced injury of the cremaster arteriole in mice. It counts as in vivo. Conditions: single infusion of 5 mg/kg. The text has this:
PAR1 is the thrombin receptor on human platelets and serves an important function in mediating thrombus formation. We tested compound 1 to determine whether it inhibited thrombus formation following laser-induced injury of the cremaster arteriole in mice. The dominant PAR receptor on mouse platelets is PAR4. However, since compound 1 acts at a non-orthosteric site and mouse PAR4 differs from human PAR4, we reasoned that compound 1 may be able to block mouse PAR4. […] When infused into mice at a concentration of 5 mg/kg, compound 1 inhibited platelet accumulation during thrombus formation by >90% (FIG. 4B). Infusion of 5 mg/kg also impaired fibrin generation during thrombus formation (FIG. 4C). Thus, compound 1 blocks both cellular- and coagulation protein-mediated arms of thrombus formation. […] The compound was therefore infused every 30 minutes during the course of these experiments. The short half-life of compound 1 in vivo may be useful in scenarios in which anticoagulation is only required for a short period of time or when anticoagulation needs to be reversed quickly, such as anticoagulation prior to invasive procedures or surgery.
(§1) Since there are also situations in which longer term anticoagulation is desired, we performed further studies in the thrombus formation model to assess analogs of compound 1 that may have a more long-lived effect. […] This instability in mouse plasma may have contributed to its short half-life of efficacy in vivo.

Series [1] can be described thus: Stability in mouse plasma. It counts as in vitro ADME.
Excerpt: as §1

Another series concerns the target T1, PAR1 (Homo sapiens, UniProt P25116).
T1 sequence (P25116 22-425): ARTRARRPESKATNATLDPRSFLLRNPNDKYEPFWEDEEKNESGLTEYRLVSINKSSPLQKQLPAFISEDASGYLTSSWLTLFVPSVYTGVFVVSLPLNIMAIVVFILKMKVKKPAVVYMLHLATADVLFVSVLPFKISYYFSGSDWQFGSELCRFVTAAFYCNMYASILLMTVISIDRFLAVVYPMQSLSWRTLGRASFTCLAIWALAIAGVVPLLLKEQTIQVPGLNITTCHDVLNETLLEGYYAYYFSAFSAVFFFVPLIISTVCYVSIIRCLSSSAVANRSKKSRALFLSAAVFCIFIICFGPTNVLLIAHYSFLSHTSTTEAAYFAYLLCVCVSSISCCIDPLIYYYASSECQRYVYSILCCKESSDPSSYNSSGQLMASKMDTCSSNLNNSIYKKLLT
Put plainly: PAR1-mediated platelet aggregation and shape change. The series is classed as cell-based. Further details: endogenous in cells; host or cells: platelets (platelet-rich plasma; washed platelets from individual donors). The note with it: FIG. 3A. The text has this: (§2) This pattern of inhibition is consistent with that of an allosteric inhibitor. […] This observation raised the possibility that compound 1 blocks PAR1 signaling through Gαq (which mediates platelet aggregation downstream of PAR1), but not Gα12/13 (which mediates shape change downstream of PAR1). A previously identified PAR1 inhibitor, 3,5-difluoro aminoisoxazole (3,5-DFAI), inhibited both shape change and aggregation. Shape change that occurred in the presence of compound 1 was blocked by the Rho kinase inhibitor Y27632, confirming participation of Rho kinase downstream of Gα12/13 in compound-1-resistance shape change (FIG. 3A). […] PAR1-mediated decrease in TER in these cells is dependent on Gα12. […] In contrast, 3,5-DFAI inhibited SFLLRN-mediated decrease in TER (FIG. 3B) and compound 1 inhibited Gαq-mediated Ca^2+ flux in these MDCK cells (FIG. 3C).

Another series concerns the target T2, Par1 (thrombin) receptor (Homo sapiens, UniProt P25116).
T2 construct: endogenous in cells; host or cells: platelets (platelet-rich plasma; washed platelets from individual donors)
T2 sequence (P25116 22-425): T1 sequence (P25116 22-425)
As to the kind of experiment: SFLLRN-mediated granule secretion, platelet-rich plasma, luciferin-luciferase ATP readout (primary assay). It counts as cell-based. The note with it: Table D; read-out: Activity (measured IC50 category). On the procedure: The compounds were tested in two independent IC50 determination experiments using the primary assay measuring SFLLRN-mediated granule secretion. For this assay, platelet-rich plasma is treated with putative inhibitors prior to activation by the SFLLRN peptide, which targets the Par1 (thrombin) receptor. Upon activation, platelets secrete dense granules, which are concentrated with ATP. Platelet activation and possible inhibition are monitored by a luciferin-luciferase assay (CellTiter-Glo without lysis reagent) to measure the ATP secreted from activated platelets. Luminescence measurements are made using a plate reader (Envision, PerkinElmer) capable of detecting luminescence.

Series [2] has as its system Gα12 signaling downstream of PAR1. As to the kind of experiment: PAR1-mediated transmembrane resistance (TER) in MDCK cells overexpressing Gα12. The series is classed as cell-based. Conditions: FIG. 3B.
Excerpt: as §2

A value given as a limit tells only on which side of the number the result lay.

`CC(C)CC(=O)Nc1cccc(NC(=O)c2ccccc2Br)c1` [2-bromo-N-(3-(3-methylbutanamido)phenyl)benzamide]: the “impairment of platelet accumulation during thrombus formation” value with thrombus formation (FIG. 5A) was over 90%. In addition, in the series with thrombus formation (FIG. 5B), the “impairment of fibrin generation during thrombus formation” value was over 90%. In addition, the “remaining after 5 hour incubation in mouse plasma” value in series [1] is given as 64.6%.
Consider `C[C@@H](N)[C@H]1CC[C@H](C(=O)Nc2ccncc2)CC1` [Compound Y27632], for which, at PAR1 (in the presence of compound 1), the “shape change that occurred in the presence of compound 1” value was “blocked”.
Regarding `CCCC(=O)Nc1cccc(NC(=O)c2cc(Cl)ccc2Br)c1`, on Par1 (thrombin) receptor, the IC50 was 0.001 to 1 µM.
As to `O=C(Nc1ccnc(NC(=O)c2ccccc2Br)c1)c1ccccc1`, the IC50 on Par1 (thrombin) receptor is over 10 µM.
Regarding `CCC(=O)Nc1cc(NC(=O)c2ccccc2C)ccc1C`, the IC50 on Par1 (thrombin) receptor is over 10 µM.
`CCCC(=O)Nc1cccc(NC(=O)c2ccccc2F)c1`: the IC50 at Par1 (thrombin) receptor fell in the range of 0.001 to 1 µM.
As to `CCCC(=O)Nc1ccc(Cl)c(NC(=O)c2ccccc2Br)c1`, the 50% inhibitory concentration (IC50) at Par1 (thrombin) receptor was over 10 µM.
`CCCC(=O)Nc1cccc(N(C)C(=O)c2ccccc2Br)c1`: the IC50 at Par1 (thrombin) receptor is over 10 µM.
Still for that read-out and setting: under `CC(C)CC(=O)Nc1cccc(NC(=O)c2ccccc2Br)c1` [drawing 174] stands 0.001 to 1 µM; under `CCCC(=O)Nc1cccc(NCc2ccccc2Br)c1`, over 10 µM.
As to `CCCC(=O)Nc1cccc(NC(=O)c2ccccc2C)c1`, the IC50 at Par1 (thrombin) receptor fell in the range of 0.001 to 1 µM.
Regarding `CCCC(=O)Nc1cccc(NC(=O)c2ccc(C)cc2)c1`, the IC50 on Par1 (thrombin) receptor was over 10 µM.
`CCCC(=O)Nc1cccc(NC(=O)c2ccccc2Cl)c1`: the IC50 on Par1 (thrombin) receptor was 1 to 5 µM.
As to `CCCC(=O)Nc1cccc(NC(=O)c2ccccc2C(=O)N(C)C)c1`, the IC50 on Par1 (thrombin) receptor was over 10 µM.
In the case of `CN(C(=O)c1ccccc1Br)c1cccc(NC(=O)C2CCCC2)c1`, the IC50 on Par1 (thrombin) receptor is over 10 µM.
`CCOC(=O)Nc1cccc(NC(=O)c2ccccc2Br)c1`: on Par1 (thrombin) receptor, the half-maximal inhibitory concentration (IC50) is 1 to 5 µM.
With `CCCC(=O)Nc1cccc(NC(=O)c2cccc(Cl)c2Cl)c1`, on Par1 (thrombin) receptor, the half-maximal inhibitory concentration (IC50) was in the range of 1 to 5 µM.
In the case of `CCCC(=O)Nc1ccc(Cl)c(NC(=O)c2ccccc2C)c1`, the IC50 on Par1 (thrombin) receptor was over 10 µM.
Consider `CCCC(=O)Nc1cccc(NC(=O)c2ccc(C(F)(F)F)cc2)c1`, for which the IC50 at Par1 (thrombin) receptor was over 10 µM.
Regarding `CCCC(=O)Nc1cccc(NC(=O)c2ccccc2CC)c1`, on Par1 (thrombin) receptor, the IC50 was in the range of 0.001 to 1 µM.
Consider `O=C(Nc1cccc(NC(=O)c2ccccc2Br)c1)c1ccccc1`, for which the IC50 at Par1 (thrombin) receptor was over 10 µM.
On the same count and under the same terms, to `O=C(Nc1cc(NC(=O)C2CCCC2)ccn1)c1ccccc1Br` belongs over 10 µM.
Regarding `CCCC(=O)Nc1cccc(NC(=O)c2ccco2)c1`, the IC50 at Par1 (thrombin) receptor was over 10 µM.
Take `CCCC(=O)N(C)c1cccc(NC(=O)c2ccccc2Br)c1`: on Par1 (thrombin) receptor, the IC50 was over 10 µM.
For `CCCC(=O)Nc1cccc(NC(=O)c2cnc3ccccc3c2)c1`, on Par1 (thrombin) receptor, the IC50 is over 10 µM.
As to `CCCCNc1cccc(NC(=O)c2ccccc2Br)c1`, the IC50 on Par1 (thrombin) receptor fell in the range of 0.001 to 1 µM.
As to `Cc1ccccc1C(=O)Nc1cccc(NC(=O)CC(C)C)c1`, the IC50 at Par1 (thrombin) receptor was in the range of 1 to 5 µM.
Take `CCCC(=O)Nc1cccc(NC(=O)c2ccccc2-c2ccccc2)c1`: the IC50 at Par1 (thrombin) receptor is over 10 µM.
In the case of `CCCC(=O)Nc1cccc(NC(=O)c2cc(C)ccc2Br)c1`, the IC50 at Par1 (thrombin) receptor fell in the range of 0.001 to 1 µM.
`CCCC(=O)Nc1ccnc(NC(=O)c2ccccc2Br)c1`: on Par1 (thrombin) receptor, the IC50 is over 10 µM.
For the molecule `CCCC(=O)Nc1cccc(NC(=O)c2ccccc2Br)c1` [drawing 135], the IC50 on Par1 (thrombin) receptor fell in the range of 0.001 to 1 µM.
With `CCCC(=O)Nc1cccc(NC(=O)c2ccccc2OC(F)(F)F)c1`, on Par1 (thrombin) receptor, the IC50 lay within 0.001 to 1 µM.
As to `CCCC(=O)Nc1cccc(NC(=O)c2cccnc2)c1`, the IC50 at Par1 (thrombin) receptor was over 10 µM.
Still for that read-out and setting: to `CCCC(=O)Nc1cccc(NC(=O)c2c(C)cccc2C)c1` belongs 1 to 5 µM.
Consider `O=C(Nc1cccc(NC(=O)C2CCCC2)c1)c1ccccc1Br`, for which the IC50 on Par1 (thrombin) receptor was in the range of 0.001 to 1 µM.
In the case of `CCCC(=O)Nc1cccc(NC(=O)c2c(Cl)cccc2Br)c1`, the IC50 on Par1 (thrombin) receptor was 1 to 5 µM.
In the case of `CCCC(=O)Nc1cccc(NC(=O)c2ccc(F)cc2Br)c1`, the IC50 at Par1 (thrombin) receptor lay within 0.001 to 1 µM.
Take `CC(=O)Nc1ccc(NC(=O)c2ccccc2Br)cc1`: the half-inhibitory concentration (IC50) on Par1 (thrombin) receptor is over 10 µM.
Turning to `CCCC(=O)Nc1cccc(NC(=O)c2ccc(S(C)(=O)=O)cc2)c1`, the IC50 on Par1 (thrombin) receptor was over 10 µM.
In the case of `CC(=O)Nc1cccc(NC(=O)c2ccccc2Cl)c1`, the IC50 on Par1 (thrombin) receptor was over 10 µM.
Same read-out and setting: under `CCCC(=O)Nc1cccc(NC(=O)c2ccccc2S(C)(=O)=O)c1` stands over 10 µM.
As for `CCC(C)(C)C(=O)Nc1cccc(NC(=O)c2ccccc2Br)c1`, the IC50 at Par1 (thrombin) receptor was over 10 µM.
As to `CCCC(=O)Nc1cccc(NC(=O)c2ccccc2C(F)(F)F)c1`, the IC50 at Par1 (thrombin) receptor was in the range of 1 to 5 µM.
As to `Nc1c(F)noc1F` [3,5-DFAI, 3,5-difluoro aminoisoxazole], the “PAR1-mediated (SFLLRN) change in TER” value in series [2] is listed as “inhibited”. Also, at PAR1, the PAR1-mediated platelet aggregation entry is recorded as “inhibited” and the “PAR1-mediated platelet shape change” value is on record as “inhibited”.
Take `CCC(=O)Nc1cccc(NC(=O)c2ccccc2Br)c1`: at Par1 (thrombin) receptor, the IC50 was 1 to 5 µM.
On the same count and under the same terms, to `CCCC(=O)Nc1cccc(NC(=O)c2cccc(S(C)(=O)=O)c2)c1` belongs over 10 µM; to `CCCC(=O)Nc1cccc(NC(=O)c2ccc(OC)cc2)c1`, over 10 µM; to `CCCC(=O)Nc1cccc(NC(=O)c2cc(F)ccc2Br)c1`, 0.001 to 1 µM.
For `O=C(Nc1ccccc1)c1ccccc1Br`, the IC50 at Par1 (thrombin) receptor fell in the range of 1 to 5 µM.
Take `CCCC(=O)Nc1ccc(NC(=O)c2ccccc2Br)cc1`: the IC50 at Par1 (thrombin) receptor was over 10 µM.
On the same count and under the same terms, to `CCCNC(=O)c1cccc(NC(=O)c2ccccc2Cl)c1` belongs 1 to 5 µM.
